Measurements taken from patent publication US7511047B2, “Kinase inhibitors” (Cytopia Research Pty Ltd, priority 2002, dated 2009).

Key:
Format in all cases: biochemical
[1] = target: kdr (Homo sapiens, UniProt P35968); assay: kdr kinase assay (ELISA or Alphascreen); conditions: capacity to inhibit 50% of activity at 50 μM; read-out: kdr inhibitory activity
Protocol: (§1) For screening purposes, compounds were diluted in 96 well plates at a concentration of 20 μM. Plates were warmed at 37° C. for 30 minutes before assay.
(§2) Kinase assays were performed either in a 96 well capture-based ELISA assay or in 384 well Optiplates (Packard) using an Alphascreen Protein Tyrosine Kinase kit. In either casse using approximately 1.5 μg of affinity purified PTK domain in the presence of 50 mM HEPES, pH 7.5, 10 mM MgCl2, 150 mM NaCl and 10 μM-1 mM ATP. The biotinylated substrate biotin-EGPWLEEEEEAYGWMDF-NH2 (SEQ ID NO:9) (final concentration 5 μM) was used as substrate. In the ELISA assay tyrosine phosphorylation was quantitated following transfer to an avidin coated ELISA plate using peroxidase-linked anti-phospho-tyrosine antibody PY20. In the Alphascreen assay, Alphascreen phosphotyrosine acceptor beads followed by streptavidin donor beads were added under subdued light. The ELISA plates were read on a BMG Fluorostar, the Alphascreen plates were read on a Packard Fusion Alpha. Inhibitors were added to the assays fifteen minutes prior to the addition of ATP. Inhibitors were added in aqueous DMSO, with DMSO concentrations never exceeding 1%.

[2] = target: hck (Homo sapiens, UniProt P08631); assay: hck kinase assay (ELISA or Alphascreen); conditions: capacity to inhibit 50% of activity at 50 μM; read-out: hck inhibitory activity
Protocol: as §1, §2

[3] = target: T1, abl (Homo sapiens, UniProt P00519); assay: abl kinase assay (ELISA or Alphascreen); conditions: capacity to inhibit 50% of activity at 50 μM; read-out: abl inhibitory activity
T1 sequence (P00519 242-493 limits assumed): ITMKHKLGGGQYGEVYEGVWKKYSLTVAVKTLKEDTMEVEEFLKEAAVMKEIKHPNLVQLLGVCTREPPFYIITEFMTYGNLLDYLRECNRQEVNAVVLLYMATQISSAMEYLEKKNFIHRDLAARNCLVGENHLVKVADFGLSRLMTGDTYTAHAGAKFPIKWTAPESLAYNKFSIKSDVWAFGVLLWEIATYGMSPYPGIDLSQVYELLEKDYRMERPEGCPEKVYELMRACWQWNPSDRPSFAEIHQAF
Protocol: as §1, §2

[4] = target: T2, Jak3 (Homo sapiens, UniProt P52333); assay: JAK3 kinase domain assay (ELISA or Alphascreen); conditions: capacity to inhibit 50% of activity at 50 μM; read-out: Jak3 inhibitory activity
T2 construct: The kinase domain of humanJAK3 was amplified from U937mRNA; His tag (from pFastBac HTb vector) (N); made in house; host or cells: baculovirus; Sf9 insect cells for virus, High Five cells for large-scale production
Protocol: as §1
(§3) • JAK2 PCR products were cloned into the pFastBac HTc expression vector (Gibco) via the Sal I and Not I sites. The JAK2 plasmid was then transformed into competent DH10Bac cells (Gibco), and the recombinant baculovirus produced prepared for transfection into Sf9 insect cells. JAK3 • The kinase domain of humanJAK3 was amplified from U937mRNA using the polymerase chain reaction with the following primers:
• JAK3 PCR products were cloned into the pFastBac HTb expression vector (Gibco) via the Xho I and Kpn I sites. The JAK3 plasmid was then transformed into competent DH10Bac cells (Gibco), and the recombinant baculovirus produced prepared for transfection into Sf9 insect cells. TYK2 • The kinase domain of humanTYK2 was amplified from A549 mRNA using the polymerase chain reaction with the following primers: […]
(§4) Baculovirus preparations from each of the JAK family members were infected into five litres of High Five cells (Invitrogen) grown in High Five serum free medium (Invitrogen) to a cell density of approximately 1-2×10^6 cells/ml. Cells are infected with virus at a MOI of 0.8-3.0. Cells were harvested and lysed. JAK kinase domains were purified by affinity chromatography on a Probond (Invitrogen) nickel chelate affinity column.
as §2

[5] = target: T3, Jak2 (Homo sapiens, UniProt O60674); assay: JAK2 kinase domain assay (ELISA or Alphascreen); conditions: capacity to inhibit 50% of activity at 50 μM; read-out: Jak2 inhibitory activity
T3 construct: The kinase domain of humanJAK2 was amplified from U937mRNA; His tag (from pFastBac HTc vector) (N); made in house; host or cells: baculovirus; Sf9 insect cells for virus, High Five cells for large-scale production
Protocol: as §1
• JAK1 PCR products were cloned into the pFastBac HTb expression vector (Gibco) via the Xho I and Kpn I sites. The JAK1 plasmid was then transformed into competent DH10Bac cells (Gibco), and the recombinant baculovirus produced prepared for transfection into Sf9 insect cells. JAK2 • The kinase domain of humanJAK2 was amplified from U937mRNA using the polymerase chain reaction with the following primers:
as §3, with “primers: […]” for “primers:”
as §4, §2

T3 sequence (O60674 849-1124 limits assumed): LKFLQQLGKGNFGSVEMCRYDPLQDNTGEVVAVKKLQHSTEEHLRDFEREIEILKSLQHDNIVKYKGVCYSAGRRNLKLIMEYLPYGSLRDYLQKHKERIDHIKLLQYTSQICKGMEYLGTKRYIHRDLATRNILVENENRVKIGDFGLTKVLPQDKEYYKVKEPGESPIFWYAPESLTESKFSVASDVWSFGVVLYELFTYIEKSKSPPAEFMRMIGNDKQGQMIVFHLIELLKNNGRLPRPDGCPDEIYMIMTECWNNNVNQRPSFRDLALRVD
T2 sequence (P52333 822-1111 limits assumed): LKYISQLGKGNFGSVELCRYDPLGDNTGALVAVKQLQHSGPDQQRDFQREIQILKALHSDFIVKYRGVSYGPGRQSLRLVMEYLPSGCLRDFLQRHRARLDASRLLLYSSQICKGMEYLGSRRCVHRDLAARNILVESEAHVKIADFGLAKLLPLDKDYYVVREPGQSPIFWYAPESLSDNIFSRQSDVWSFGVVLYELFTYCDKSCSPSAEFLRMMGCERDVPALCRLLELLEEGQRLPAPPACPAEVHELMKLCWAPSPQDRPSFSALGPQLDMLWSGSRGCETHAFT
Sequence of kdr (P35968 834-1162 limits assumed, species assumed): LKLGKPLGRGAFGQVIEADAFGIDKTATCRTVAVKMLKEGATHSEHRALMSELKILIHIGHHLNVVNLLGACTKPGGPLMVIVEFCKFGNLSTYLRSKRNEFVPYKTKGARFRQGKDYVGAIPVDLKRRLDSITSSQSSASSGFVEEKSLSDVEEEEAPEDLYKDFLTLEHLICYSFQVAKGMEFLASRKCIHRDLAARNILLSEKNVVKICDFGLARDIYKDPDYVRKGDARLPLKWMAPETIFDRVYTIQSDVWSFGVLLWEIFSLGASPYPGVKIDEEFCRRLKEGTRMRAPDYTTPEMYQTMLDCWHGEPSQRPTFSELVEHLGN
Sequence of hck (P08631 262-515 limits assumed, species assumed): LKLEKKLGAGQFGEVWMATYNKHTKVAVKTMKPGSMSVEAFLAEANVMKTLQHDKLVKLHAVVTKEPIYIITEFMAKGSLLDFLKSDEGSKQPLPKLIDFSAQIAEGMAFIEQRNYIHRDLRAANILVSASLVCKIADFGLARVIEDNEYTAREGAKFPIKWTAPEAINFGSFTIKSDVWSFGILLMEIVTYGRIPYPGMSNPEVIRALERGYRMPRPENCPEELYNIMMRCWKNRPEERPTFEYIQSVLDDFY

Compound | inhibition at 50 µM [1] [%] | inhibition at 50 µM [2] [%] | inhibition at 50 µM [3] [%] | inhibition at 50 µM [4] [%] | inhibition at 50 µM [5] [%]
Fc1ccc(CNc2cncc(-n3ccnc3)n2)cc1 | < 50 | > 50 | < 50 | > 50 | < 50
C[C@@H](Nc1cncc(-n2ccnc2)n1)c1ccccc1 | < 50 | > 50 | > 50 | < 50 | < 50
COc1ccc([C@H](C)Nc2cncc(-n3cnc4ccccc43)n2)cc1 | > 50 |  | > 50 | < 50 | < 50
C[C@H](Nc1cncc(-n2cnc3ccccc32)n1)c1ccc(Br)cc1 | > 50 |  | > 50 | < 50 | < 50
C[C@H](Nc1cncc(-n2cnc3ccc(NS(C)(=O)=O)cc32)n1)c1ccccc1 | > 50 | > 50 | > 50 | < 50 | > 50
C[C@H](Nc1cncc(-n2cnc3cc(NS(C)(=O)=O)ccc32)n1)c1ccccc1 | > 50 | > 50 | > 50 | < 50 | > 50
c1ccc2c(c1)ncn2-c1cncc(Nc2ccc(N3CCOCC3)cc2)n1 | > 50 | > 50 | < 50 | < 50 | < 50
Cc1nccn1-c1cncc(NCc2ccc(F)cc2)n1 | < 50 | > 50 | < 50 | > 50 | < 50
C[C@H](Nc1cncc(-n2ccnc2)n1)c1ccccc1 | < 50 | > 50 | > 50 | < 50 | < 50
C[C@H](Nc1cncc(-n2cnc3ccccc32)n1)c1ccccc1 | > 50 | > 50 | > 50 | < 50 | > 50
Cc1nc2ccccc2n1-c1cncc(N[C@@H](C)c2ccccc2)n1 | < 50 | < 50 | < 50 | < 50 | < 50
Cc1ccc2c(c1)ncn2-c1cncc(N[C@@H](C)c2ccccc2)n1 | > 50 | > 50 | > 50 | < 50 | > 50
C[C@H](Nc1cncc(-n2cnc3ccc(C(=O)N4CCN(C)CC4)cc32)n1)c1ccccc1 | < 50 | > 50 | < 50 | < 50 | < 50
C[C@H](Nc1cncc(-n2cnc3cc(C(=O)N4CCN(C)CC4)ccc32)n1)c1ccccc1 | > 50 | > 50 | > 50 | < 50 | < 50
C[C@H](Nc1cncc(-n2cnc3cc(NC(=O)c4ccncc4)ccc32)n1)c1ccccc1 | > 50 | > 50 | > 50 | < 50 | < 50
C[C@H](Nc1cncc(-n2cnc3ccc(NC(=O)c4ccncc4)cc32)n1)c1ccccc1 | > 50 | < 50 | > 50 | < 50 | > 50
C[C@H](Nc1cncc(-n2cnc3cc(C4=NCCO4)ccc32)n1)c1ccccc1 | > 50 | > 50 | > 50 | < 50 | < 50
C[C@H](Nc1cncc(-n2cnc3ccc(C(=O)NCCO)cc32)n1)c1ccccc1 | > 50 | > 50 | > 50 | > 50 | > 50
CNC(=O)c1ccc2c(c1)ncn2-c1cncc(N[C@@H](C)c2ccccc2)n1 | > 50 | > 50 | > 50 | < 50 | > 50
CNC(=O)c1ccc2ncn(-c3cncc(N[C@@H](C)c4ccccc4)n3)c2c1 | > 50 | > 50 | > 50 | > 50 | > 50
C[C@H](Nc1cncc(-n2cnc3ccc(N)cc32)n1)c1ccccc1 | > 50 | > 50 | > 50 | < 50 | > 50
C[C@H](Nc1cncc(-n2cnc3cc(N)ccc32)n1)c1ccccc1 | > 50 | > 50 | > 50 | < 50 | > 50
C[C@H](Nc1cncc(-n2cnc3cc(C(=O)NCc4ccccc4)ccc32)n1)c1ccccc1 | > 50 | > 50 | > 50 | < 50 | < 50
C[C@H](Nc1cncc(-n2cnc3cc(C(=O)Nc4ccccc4)ccc32)n1)c1ccccc1 | < 50 | > 50 | > 50 | < 50 | < 50
C[C@H](Nc1cncc(-n2cnc3ccc(NC(=O)c4cccnc4)cc32)n1)c1ccccc1 | > 50 | > 50 | > 50 | < 50 | > 50
C[C@H](Nc1cncc(-n2cnc3ccc(NC(=O)C(C)(C)C)cc32)n1)c1ccccc1 | > 50 | > 50 | > 50 | > 50 | > 50
C[C@H](Nc1cncc(-n2cnc3cc(NC(=O)C(C)(C)C)ccc32)n1)c1ccccc1 | > 50 | > 50 | > 50 | > 50 | > 50
COCC(=O)Nc1ccc2c(c1)ncn2-c1cncc(N[C@@H](C)c2ccccc2)n1 | > 50 | > 50 | > 50 | < 50 | < 50
COCC(=O)Nc1ccc2ncn(-c3cncc(N[C@@H](C)c4ccccc4)n3)c2c1 | > 50 | > 50 | > 50 | < 50 | > 50
CC(=O)Nc1ccc2ncn(-c3cncc(N[C@@H](C)c4ccccc4)n3)c2c1 | > 50 | > 50 | > 50 | < 50 | > 50
